Test results taken from US8809627B2, “Plant isoflavone and isoflavanone O-methyltransferase genes” (The Samuel Roberts Noble Foundation, Inc., priority 2006, dated 2014).
“Also recorded” adds a separate entry of the source.

Experiments:
Type in all cases: cell-based, Medicago truncatula
[1] = system: MtIOMT6; test: Microarray analysis of elicitor-treated cell suspension cultures: MtIOMT6 transcripts; conditions: 2 and 24 hours post-elicitation
From the text: (§1) The Affymetrix DNA chip contained 61,200 probe sets: 32,167 M. truncatula EST/mRNA-based and chloroplast gene-based probe sets (TIGR Gene Index version 8, January, 2005, 36,878 unique sequences); 18,733 M. truncatula IMGAG (International Medicago Genome Annotation Group) and phase 2/3 BAC prediction-based probe sets; 1,896 M. sativa EST/mRNA based probe sets; 8,305 Sinorhizobium meliloti gene prediction-based probe sets. For microarray experiments, total RNA was extracted from cell suspension cultures (Suzuki et al., 2005) using TRI Reagent (Molecular Research Center, Inc., Cincinnati, Ohio) and purified using the RNeasy® MinElute Cleanup Kit (Qiagen, Valencia, Calif.), according to the manufacturer's instructions. For all samples, 10 μg of total RNA was used for labeling reactions. Labeling, hybridization and data processing were performed according to the manufacturer's instruction (Affymetrix, Santa Clara, Calif.). For both YE and MeJA treatments, transcript profiles were examined at early (2 h) and late (24 h) time post-elicitation. For each sample point, two biological replicates were included, and the average signal intensities were used to calculate ratio of treatment to its corresponding control. […]

[2] = system: MtIOMT1; test: Expression in elicitor-treated cell cultures: MtIOMT1 transcripts
From the text: as §1

[3] = system: MtIOMT4; test: Microarray analysis of elicitor-treated cell suspension cultures: MtIOMT4 transcripts; conditions: 2 and 24 hours post-elicitation
From the text: as §1

[4] = system: MtIOMT2; test: RT-PCR analysis of elicitor-treated cell cultures: MtIOMT2
Method: (§2) Infection of M. truncatula with Phoma medicaginis was performed as described (Deavours and Dixon, 2005). RNA was extracted from plant tissues using TRI Reagent (Molecular Research Center, Inc., Cincinnati, Ohio) according to the manufacturer's instructions. For RT-PCR, 2 μg of total RNA was transcribed into cDNA using Ready-To-Go RT-PCR beads (Amersham, Piscataway, N.J.) and oligo-dT primer. Two μl of cDNA was used in each PCR reaction (50 μl total) with Ex-Taq PCR reagents (Takara Bio Inc., Shiga, Japan) and the primers used are listed in Table 1 (SEQ ID NOs:16-29). PCR conditions were 94° C., 5 min; 25-32 cycles of 94° C. for 1 min, 55° C. for 1 min, 72° C. for 1 min; followed by 72° C. for 10 min. PCR products were resolved on a 1% (w/v) TAE-agarose gel and visualized with ethidium bromide.
(§3) Differential induction of MtIOMTs in response to elicitation was also observed in M. truncatula cell cultures treated with yeast elicitor (YE) or methyl jasmonate (MeJA), which induce different global patterns of genetic re-programming (Suzuki et al., 2005). Changes in IOMT transcripts in elicited cells were inferred from microarray data generated utilizing Affymetrix Medicago genome arrays with 61K probe sets (www.affymetrix.com). […]

[5] = system: MtIOMT7; test: Microarray analysis of elicitor-treated cell suspension cultures: MtIOMT7 transcripts; conditions: 2 and 24 hours post-elicitation
From the text: as §1

[6] = system: IFS genes; test: Microarray analysis of elicitor-treated cell suspension cultures: IFS transcripts; conditions: MeJA: 24 h after treatment
From the text: The Affymetrix DNA chip contained 61,200 probe sets: 32,167 M. truncatula EST/mRNA-based and chloroplast gene-based probe sets (TIGR Gene Index version 8, January, 2005, 36,878 unique sequences); 18,733 M. truncatula IMGAG (International Medicago Genome Annotation Group) and phase 2/3 BAC prediction-based probe sets; 1,896 M. sativa EST/mRNA based probe sets; 8,305 Sinorhizobium meliloti gene prediction-based probe sets. For microarray experiments, total RNA was extracted from cell suspension cultures (Suzuki et al., 2005) using TRI Reagent (Molecular Research Center, Inc., Cincinnati, Ohio) and purified using the RNeasy® MinElute Cleanup Kit (Qiagen, Valencia, Calif.), according to the manufacturer's instructions. For all samples, 10 μg of total RNA was used for labeling reactions. Labeling, hybridization and data processing were performed according to the manufacturer's instruction (Affymetrix, Santa Clara, Calif.). For both YE and MeJA treatments, transcript profiles were examined at early (2 h) and late (24 h) time post-elicitation. For each sample point, two biological replicates were included, and the average signal intensities were used to calculate ratio of treatment to its corresponding control.
MtIOMTs 6-8 are annotated as encoding 2,7,4′-trihydroxyisoflavanone 4′-OMTs. […]

[7] = system: MtIOMT6; test: RT-PCR analysis of elicitor-treated cell cultures: MtIOMT6
Method: as §2, §3

SMILES: CC/C=C\CC1C(=O)CCC1CC(=O)OC (stereo not shown) [MeJA, methyl jasmonate]
- Induction of MtIOMT6 transcripts, treatment vs control [1]: massively induced; also recorded: very strongly induced
- Induction of MtIOMT1 transcripts [2]: induced
- Induction of MtIOMT4 transcripts, treatment vs control [3]: down-regulated
- Induction of MtIOMT2 transcripts [4]: strong induction
- Induction of MtIOMT7 transcripts, treatment vs control [5]: massively induced; also recorded: very strongly induced
- Change of IFS gene transcripts, treatment vs control [6]: down-regulated; also recorded: consistently reduced
- Induction of MtIOMT6 transcripts [7]: strong induction
